Results taken from patent US10294202B2, “Pyrrolidinones as herbicides” (FMC Corporation, priority 2013, dated 2019).

What was measured:
barnyardgrass = assay: Test A pre-/postemergence herbicide test; format: in vivo, Echinochloa crus-galli
Summary of the method: (§1)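 Scoring was visual, relative to untreated controls, on a 0–100 scale after about 10 greenhouse days. Preemergence treatment used a directed soil spray over seeded loam/sand; postemergence treatment targeted one- to two-leaf plants of 2–10 cm.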

pigweed = assay: Test A pre-/postemergence herbicide test; format: in vivo, Amaranthus retroflexus
Summary of the method: as §1

wheat = assay: Test A pre-/postemergence herbicide test; format: in vivo, Triticum aestivum; conditions: Postemergence
Summary of the method: as §1

corn [1] = assay: Test A pre-/postemergence herbicide test; format: in vivo, Zea mays; conditions: Postemergence
Summary of the method: as §1

ryegrass, Italian = assay: Test C pre-/postemergence herbicide test; format: in vivo, Lolium multiflorum
Summary of the method: (§2)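 Response scores range from 0, meaning no effect, to 100, meaning complete control, assigned visually by comparison with controls roughly two weeks (13 to 15 days) after spraying. Applications were made preemergence to seeded loam–sand soil and postemergence to 1- to 4-leaf plants.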

wheat (winter wheat) = assay: Test C pre-/postemergence herbicide test; format: in vivo, Triticum aestivum; conditions: for Plant response rating, Wheat: Postemergence
Summary of the method: as §2

galium = assay: Test C pre-/postemergence herbicide test; format: in vivo, Galium aparine
Summary of the method: as §2

corn [2] = assay: Test C pre-/postemergence herbicide test; format: in vivo, Zea mays
Summary of the method: as §2

crabgrass, large = assay: Test C pre-/postemergence herbicide test; format: in vivo, Digitaria sanguinalis
Summary of the method: as §2

foxtail, giant = assay: Test C pre-/postemergence herbicide test; format: in vivo, Setaria faberii
Summary of the method: as §2

johnsongrass = assay: Test C pre-/postemergence herbicide test; format: in vivo, Sorghum halepense
Summary of the method: as §2

morningglory = assay: Test C pre-/postemergence herbicide test; format: in vivo, Ipomoea coccinea
Summary of the method: as §2

soybean = assay: Test C pre-/postemergence herbicide test; format: in vivo, Glycine max
Summary of the method: as §2

[3] = Postemergence, 500 g ai/ha, 0 to 100 scale (0 no effect, 100 complete control)
[4] = Preemergence, 125 g ai/ha, 0 to 100 scale where 0 is no effect and 100 is complete control
[5] = preemergence, 500 g ai/ha, 0 to 100 scale, 0 is no effect and 100 is complete control
[6] = 500 g ai/ha, 0 to 100 scale (0 no effect, 100 complete control)
[7] = Postemergence, 31 g ai/ha, scale 0 to 100 (0 no effect, 100 complete control)
[8] = Postemergence, 62 g ai/ha, scale 0 (no effect) to 100 (complete control)
[9] = Postemergence, 125 g ai/ha, scale 0 to 100 (0 no effect, 100 complete control)
[10] = Postemergence, 250 g ai/ha, scale 0 to 100 (0 no effect, 100 complete control)
[11] = Preemergence, 31 g ai/ha, scale 0 to 100, 0 is no effect and 100 is complete control
[12] = Preemergence, 62 g ai/ha, scale 0 to 100 (0 no effect, 100 complete control)
[13] = Preemergence, 125 g ai/ha, scale 0 to 100 (0 no effect, 100 complete control)

O=C1NCC(c2cc(F)cc(F)c2)C1C(=O)Nc1ccc(F)cc1F (racemic) [Compound 278]
55: Plant response rating, Soybean (soybean; [8])
75: Plant response rating, Crabgrass, Large (crabgrass, large; [10]) | Plant response rating, Foxtail, Giant (foxtail, giant; [10])
0: Plant response rating, Pigweed (pigweed; Postemergence, 125 g ai/ha, visual rating on 0 to 100 scale (0 no effect, 100 complete control), approx. 10 days) | Plant response rating, Pigweed (pigweed; [4]) | Plant response rating, Pigweed (pigweed; [5]) | Plant response rating, Wheat (wheat; 125 g ai/ha, visual rating on 0 to 100 scale (0 no effect, 100 complete control), approx. 10 days) | Plant response rating, Wheat (wheat; [6]) | Plant response rating, Corn (corn [1]; 125 g ai/ha, 0 to 100 scale, 0 is no effect, 100 is complete control) | Plant response rating, Corn (corn [1]; [6]) | Plant response rating, Ryegrass, Italian (ryegrass, Italian; [7]) | Plant response rating, Ryegrass, Italian (ryegrass, Italian; [8]) | Plant response rating, Ryegrass, Italian (ryegrass, Italian; [9]) | Plant response rating, Ryegrass, Italian (ryegrass, Italian; [10]) | Ryegrass, Italian plant response rating (ryegrass, Italian; [11]) | Ryegrass, Italian plant response rating (ryegrass, Italian; [12]) | Plant response rating, Ryegrass, Italian (ryegrass, Italian; [13]) | Plant response rating (scale of 0 to 100), Ryegrass, Italian (ryegrass, Italian; Preemergence, 250 g ai/ha) | Plant response rating, Wheat (wheat (winter wheat); 31 g ai/ha, scale 0 to 100 (0 no effect, 100 complete control)) | Plant response rating, Wheat (wheat (winter wheat); 62 g ai/ha, scale 0 (no effect) to 100 (complete control)) | Plant response rating, Wheat (wheat (winter wheat); 125 g ai/ha, scale 0 to 100 (0 no effect, 100 complete control)) | Plant response rating, Wheat (wheat (winter wheat); 250 g ai/ha, scale 0 to 100 (0 no effect, 100 complete control)) | Wheat plant response rating (wheat (winter wheat); [11]) | Wheat plant response rating (wheat (winter wheat); [12]) | Plant response rating (scale of 0 to 100), Wheat (wheat (winter wheat); Preemergence, 250 g ai/ha) | Plant response rating, Galium (galium; [7]) | Plant response rating, Galium (galium; [8]) | Galium plant response rating (galium; [11]) | Galium plant response rating (galium; [12]) | Plant response rating, Galium (galium; [13]) | Plant response rating, Corn (corn [2]; [7]) | Plant response rating, Corn (corn [2]; [8]) | Plant response rating, Corn (corn [2]; [9]) | Plant response rating, Corn (corn [2]; [10]) | Corn plant response rating (corn [2]; [11]) | Corn plant response rating (corn [2]; [12]) | Plant response rating, Corn (corn [2]; [13]) | Plant response rating, Crabgrass, Large (crabgrass, large; [7]) | Plant response rating, Johnsongrass (johnsongrass; [7]) | Plant response rating, Johnsongrass (johnsongrass; [8]) | Plant response rating, Johnsongrass (johnsongrass; [9]) | Plant response rating, Johnsongrass (johnsongrass; [10]) | Johnsongrass plant response rating (johnsongrass; [11]) | Johnsongrass plant response rating (johnsongrass; [12]) | Plant response rating, Johnsongrass (johnsongrass; [13]) | Plant response rating (scale of 0 to 100), Johnsongrass (johnsongrass; Preemergence, 250 g ai/ha) | Plant response rating, Morningglory (morningglory; [7]) | Plant response rating, Morningglory (morningglory; [8]) | Plant response rating, Morningglory (morningglory; [10]) | Morningglory plant response rating (morningglory; [11]) | Morningglory plant response rating (morningglory; [12]) | Plant response rating, Morningglory (morningglory; [13]) | Plant response rating (scale of 0 to 100), Morningglory (morningglory; Preemergence, 250 g ai/ha) | Soybean plant response rating (soybean; [11]) | Soybean plant response rating (soybean; [12])
65: Plant response rating, Crabgrass, Large (crabgrass, large; [9])
30: Plant response rating, Crabgrass, Large (crabgrass, large; [8])
50: Plant response rating, Soybean (soybean; [7])
45: Plant response rating, Morningglory (morningglory; [9])
10: Plant response rating, Pigweed (pigweed; [3]) | Plant response rating, Foxtail, Giant (foxtail, giant; [7]) | Plant response rating, Foxtail, Giant (foxtail, giant; [8]) | Plant response rating, Soybean (soybean; [13]) | Plant response rating (scale of 0 to 100), Soybean (soybean; Preemergence, 250 g ai/ha)
90: Plant response rating, Barnyardgrass (barnyardgrass; [3]) | Plant response rating, Barnyardgrass (barnyardgrass; [5]) | Crabgrass, Large plant response rating (crabgrass, large; [11]) | Foxtail, Giant plant response rating (foxtail, giant; [12])
80: Plant response rating, Barnyardgrass (barnyardgrass; Postemergence, 125 g ai/ha, 0 to 100 scale, 0 is no effect, 100 is complete control) | Plant response rating, Barnyardgrass (barnyardgrass; [4]) | Foxtail, Giant plant response rating (foxtail, giant; [11])
100: Plant response rating (scale of 0 to 100), Crabgrass, Large (crabgrass, large; Preemergence, 250 g ai/ha) | Plant response rating (scale of 0 to 100), Foxtail, Giant (foxtail, giant; Preemergence, 250 g ai/ha)
98: Plant response rating, Crabgrass, Large (crabgrass, large; [13])
5: Plant response rating, Galium (galium; [9]) | Plant response rating (scale of 0 to 100), Galium (galium; Preemergence, 250 g ai/ha) | Plant response rating (scale of 0 to 100), Corn (corn [2]; Preemergence, 250 g ai/ha)
95: Crabgrass, Large plant response rating (crabgrass, large; [12]) | Plant response rating, Foxtail, Giant (foxtail, giant; [13])
15: Plant response rating, Soybean (soybean; [10])
40: Plant response rating, Foxtail, Giant (foxtail, giant; [9]) | Plant response rating, Soybean (soybean; [9])
20: Plant response rating, Galium (galium; [10])
